Measured values published in patent US9440980B2, “Remedy for diabetes” (EA Pharma Co., Ltd., priority 2007, dated 2016).

Legend:
isolated adipocytes = experiment: Measurement of glucose uptake activity in isolated rat adipocytes (2-[14C]-deoxy-D-glucose); type: cell-based; details: Adipocyte, glucose uptake of insulin (100 nM) = 100%
Protocol: A male Wistar rat was decapitated and exsanguinated, and then a paratesticular adipose tissue was resected therefrom after laparotomy. The tissue was cut in a KRH (Krebs-Ringer HEPES: 130 mM NaCl, 4.7 mM KCl, 1.2 mM KH2PO4, 1.2 mM MgSO4, 1 mM CaCl2, 25 mM HEPES) containing a BSA (bovine serum albumin), a collagenase (type I) was added thereto, and the resultant was subjected to a digestive treatment for about 40 minutes to obtain isolated adipocytes. The buffer was replaced to remove the collagenase, and a 2% BSA/KRH solution was added thereto, whereby the adipocytes were floated again to obtain a adipocytes suspension.
The glucose uptake activity of a test substance compound was evaluated in accordance with Non-Patent Document 14: Simpson et al., Annual Review of Biochemistry, 55, 1059, (1986). Thus, 200 μl of the adipocytes suspension was dispensed into each polystyrene test tube, 100 μl of a solution containing the test substance compound was added thereto, and the test tube was shaken and incubated at 37° C. for 30 minutes. The glucose uptake activity was evaluated by measuring the amount of 2-[^14C(U)]-deoxy-D-glucose uptaken per unit time. Thus, the 2-[^14C(U)]-deoxy-D-glucose was added to the preincubated adipocytes suspension at the final concentration of 0.5 μCi/sample, and after 5 minutes, cytochalasin B was added thereto at the final concentration of 10 μM to stop the glucose uptake. Dinonyl phthalate was superposed over the solution, the resultant was centrifuged to separate the fat cells from the buffer, and the amount of the 2-[^14C(U)]-deoxy-D-glucose contained in the fat cell layer was measured by a liquid scintillation counter, whereby the uptaken glucose amount was determined. The glucose uptake of insulin (100 nM) was evaluated in the same manner and considered to be 100%, and thus the EC50 value of each compound was obtained.

Gβ1γ2-Myc = target: T1, Gβ1γ2-Myc (Homo sapiens, UniProt P62873); experiment: Gβ binding ability using Gβ-expressing insect cell extract solution (PD10 method); details: binding strength Compound 1>Compound 3>Compound 6, FIG. 8
T1 construct: made in house; host or cells: Sf21 insect cells (baculovirus), unpurified Triton X-100 extract
Protocol: The PD10 method was carried out as follows. To a microtube were added 250 μl of an RBA buffer, 100 μl of an RBA buffer containing 0 or 500 μM of the unlabeled Compound 1, 100 μl of the above extract solution, and 50 μl of an RBA buffer containing 2.5 μM of the ^3H-labeled Compound 1 successively, and the resultant mixture was stirred and left at room temperature for 1 hour. The entire reaction solution (0.5 ml) was added to a PD10 column sufficiently substituted with the RBA buffer, 2 ml of the RBA buffer was passed through the PD10 column, and thereafter further eluate by 1.5 ml of the RBA buffer was collected as a high-molecular fraction containing the protein, 15 ml of a liquid scintillator was added thereto, and the amount of the ^3H-labeled Compound 1 contained in the high-molecular fraction was measured by a scintillation counter. The count of the sample added with the unlabeled Compound 1 at the final concentration of 100 μM was considered to correspond to the nonspecific binding, the difference between the nonspecific binding count and the count of the sample not added with the unlabeled Compound 1 was considered to correspond to the specific binding, and thus the amount of the binding protein contained in the extract solution was evaluated.
Using the frozen insect cell Sf21 expressing the Gβ1, Myc-Gγ2, and Gαi1-His prepared in Example 19 (8), 10^7 cells were melted and suspended in 1.3 ml of an RBA buffer containing 1% Triton X-100 (75 mM Tris-HCl, 12.5 mM MgCl2, 2 mM EDTA, pH 7.4). […]
The inhibitory activity against the binding of the ^3H-labeled Compound 1 to the Gβ1γ2-Myc was considered to correspond to the activity of the compounds for binding to the Gβ1γ2-Myc. Thus, the activity of each of Compounds 1, 3, and 6 for binding to the Gβ1γ2-Myc was measured using the above extract solution. The activity of the ^3H-labeled Compound 1 for binding to the protein contained in the extract solution was measured by the PD10 method described in Example 15 (1). […]

HLF cell membrane = experiment: Binding assay of 3H-labeled Compound 1 using HLF cell membrane; design: species or system human; details: FIG. 4
Protocol: A cell membrane of a human liver-derived HLF cell was prepared as follows. HLF cells were approximately confluently cultured in a Dulbecco MEM medium containing 10% FCS in a cell culture dish having a diameter of 15 cm. The HLF cells cultured in 30 dishes were scraped by a cell scraper in the presence of an HMEE buffer (20 mM HEPES-KOH, 1 mM EDTA, 1 mM EGTA, and 2 mM MgCl2) to obtain about 30 ml of a cell suspension. The suspension was homogenized using a TEFLON (registered trademark) homogenizer (ice temperature, 1000 rpm, 15 stroke) and centrifuged at a low rate (1500 rpm, 5 minutes). […]
The binding assay of the ^3H-labeled Compound 1 on thus obtained cell membrane was carried out as follows. […] The filter plate was well washed with a TBS (20 mM Tris-HCl, 0.15 M NaCl, pH 7.4) containing 0.05% Twee-20 and sufficiently dried, 30 μl of a liquid scintillator (Microscinti 0, Packard) was added to the filter plate, and the ^3H count was measured by Topcount (Packard). […]
The inhibitory activity of each of the probe molecule compounds synthesized in Examples 2 and 7 to 10 against the binding of the ^3H-labeled Compound 1 to the HLF cell membrane was measured by the method described in Example 14 to confirm whether the probe compound could be bound to the binding protein like Compound 1. […]

[1] = test system: Compound 6-induced Akt phosphorylation in differentiated 3T3L1 cell; experiment: Inhibition of Compound 6-induced Akt phosphorylation in differentiated 3T3L1 adipocytes; type: cell-based; details: 15 minutes pretreatment, FIG. 12
Protocol: The inhibitory activity of the inhibitor TGX-115 specific to the phosphoinositide 3-kinase (PI3-kinase) β and δ against Compound 6-induced Akt phosphorylation was measured by using a differentiated 3T3L1 cell converted to a adipocyte as follows. […] The differentiated 3T3L1 cells were seeded in a Dulbecco MEM medium containing 10% FCS in a 96-well plate (Collagen type I coated plate, IWAKI, Product No. 4860-010) at a ratio of 4×10^4 cells/well, cultured at 37° C. for about 16 hours in the presence of 5% CO2 to achieve sufficient attachment, and the medium was removed by suction. […] Then, 10 μl of a 0.1% BSA/Dulbecco MEM medium containing 3 mM of Compound 6 was added thereto, and a treatment was carried out at 37° C. for 10 minutes in the presence of 5% CO2.

T1 sequence (P62873 whole entry): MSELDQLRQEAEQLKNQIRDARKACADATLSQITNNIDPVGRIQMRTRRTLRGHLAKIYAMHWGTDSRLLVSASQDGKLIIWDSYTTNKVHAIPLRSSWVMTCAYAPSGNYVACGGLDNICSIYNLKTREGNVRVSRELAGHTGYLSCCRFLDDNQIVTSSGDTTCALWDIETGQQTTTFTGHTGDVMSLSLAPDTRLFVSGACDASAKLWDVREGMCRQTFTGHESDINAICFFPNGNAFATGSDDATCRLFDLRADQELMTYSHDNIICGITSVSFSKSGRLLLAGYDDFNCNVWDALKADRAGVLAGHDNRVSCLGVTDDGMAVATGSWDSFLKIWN
T1 sequence (P59768 with tags, fused parts or gaps partner limits assumed): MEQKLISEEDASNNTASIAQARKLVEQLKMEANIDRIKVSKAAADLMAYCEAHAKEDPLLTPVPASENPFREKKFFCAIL

EC50 (isolated adipocytes)	Compound	also measured
14 nM	COc1ccccc1[C@@H]1C2=C(CNC2=O)N[C@@H]2CCCC[C@H]2N1C(=O)CCc1nccs1 [Compound 3]	binding to Gβ1γ2-Myc (inhibition of 3H-labeled Compound 1 binding) (Gβ1γ2-Myc): could be bound to the Gβγ2-Myc
6 nM	O=C1NCC2=C1[C@@H](c1csc3ccccc13)N(C(=O)CCc1ccccn1)[C@@H]1CCCC[C@H]1N2 [Compound 4]	–
1000 nM	O=C1NCC2=C1[C@@H](c1cccc3ccoc13)N(C(=O)C1CC1)[C@@H]1CCCC[C@H]1N2 [Compound 5]	–
–	NCCOCCOc1ccccc1[C@@H]1C2=C(CNC2=O)N[C@@H]2CCCC[C@H]2N1C(=O)CCc1ccccn1 [Compound 7]	inhibitory activity against the binding of the 3H-labeled Compound 1 to the HLF cell membrane (HLF cell membrane): equal to Compound 2
–	Cc1ccccc1Oc1cccc2c(=O)cc(N3CCOCC3)[nH]c12 [TGX-115]	inhibition of Akt phosphorylation by Compound 6 [1]: clearly inhibited
